# Biological target: T1, EF2K (Homo sapiens, UniProt O00418)
# T1 construct: host or cells: LN-229 glioblastoma cell lysate
# T1 sequence (O00418 1-725): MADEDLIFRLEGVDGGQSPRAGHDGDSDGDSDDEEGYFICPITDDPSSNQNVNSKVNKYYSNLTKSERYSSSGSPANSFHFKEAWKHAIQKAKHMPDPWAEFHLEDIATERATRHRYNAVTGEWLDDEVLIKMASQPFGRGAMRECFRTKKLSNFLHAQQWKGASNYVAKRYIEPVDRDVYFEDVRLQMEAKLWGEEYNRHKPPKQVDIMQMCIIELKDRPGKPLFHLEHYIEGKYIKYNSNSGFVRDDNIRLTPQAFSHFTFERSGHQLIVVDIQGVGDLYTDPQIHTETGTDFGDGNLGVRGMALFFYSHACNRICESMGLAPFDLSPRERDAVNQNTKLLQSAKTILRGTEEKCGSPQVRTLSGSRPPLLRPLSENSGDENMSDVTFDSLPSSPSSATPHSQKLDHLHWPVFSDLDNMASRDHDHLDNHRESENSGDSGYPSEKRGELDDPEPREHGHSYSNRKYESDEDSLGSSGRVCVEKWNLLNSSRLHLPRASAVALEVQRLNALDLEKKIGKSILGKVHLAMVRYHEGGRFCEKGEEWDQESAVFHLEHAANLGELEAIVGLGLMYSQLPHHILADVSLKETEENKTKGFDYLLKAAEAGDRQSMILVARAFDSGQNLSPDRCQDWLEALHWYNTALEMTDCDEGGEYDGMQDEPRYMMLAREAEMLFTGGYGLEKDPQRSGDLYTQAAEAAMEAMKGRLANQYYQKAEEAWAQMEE
# Assay: Biochemical EF2K lysate-based kinase assay (AlphaLISA p-eEF2 Thr56)
# Details: LN-229 cell lysates, 10 mM ATP, pH 6.6; pIC50 = -log IC50 (M); read-out: eEF2K_C_alphalisa pIC50 (converted)
# Method in brief: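 LN-229 glioblastoma lysate supplied both EF2K and eEF2 substrate; compound incubated with lysate 15 minutes at room temperature at pH 6.6 with 10 mM Mg2+ and 10 mM ATP, then stopped with excess EDTA. Thr56-phosphorylated eEF2 detected by sandwich AlphaLISA, final read after overnight standing.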
row,IC50,SMILES
1,1.91e-08 M,O=C1CN2CCC(CC2)Oc2cccc(c2)Nc2cc(ccn2)-c2cnc(nc2)NCCCN1 [Compound 90]
2,6.17e-08 M,O=C1NCCCNc2ncc(cn2)-c2ccnc(c2)Nc2cccc(c2)NC2CCN(CC2)C12CC2 [Compound 100]
3,2e-07 M,CN1c2cccc(c2)Nc2cc(ccn2)-c2cnc(nc2)NCCCNC(=O)CN2CCC1CC2 [Compound 101]
4,6.76e-09 M,O=C1NCCCNc2ncc(cn2)-c2ccnc(c2)Nc2cccc(c2)CN2CCN(CC2)C12CC2 [Compound 107]
5,2.69e-06 M,COC(=O)C1CCNC(=O)CN2CCN(CC2)Cc2cccc(c2)Nc2cc(ccn2)-c2cnc(nc2)N1 (stereo not drawn) [Compound 116]
6,4.57e-07 M,O=C1CN2CCN(CC2)Cc2cccc(c2)Nc2cc(ccn2)-c2cnc(nc2)NC(C(=O)O)CCN1 (stereo not drawn) [Compound 117]
7,2.75e-07 M,O=C1CN2CCN(CC2)Cc2cccc(c2)Nc2cc(ccn2)-c2cnc(nc2)NC(C(=O)O)CCN1 (stereo not drawn) [Compound 119]
8,6.31e-07 M,O=C1CN2CCN(CC2)Cc2cccc(c2)Nc2cc(ccn2)-c2cnc(nc2)NC(C(=O)O)CCN1 (stereo not drawn) [Compound 120]
9,5.13e-06 M,NC(=O)C1CCNC(=O)CN2CCN(CC2)Cc2cccc(c2)Nc2cc(ccn2)-c2cnc(nc2)N1 (stereo not drawn) [Compound 121]
10,1.91e-05 M,CNC(=O)C1CCNC(=O)CN2CCN(CC2)Cc2cccc(c2)Nc2cc(ccn2)-c2cnc(nc2)N1 (stereo not drawn) [Compound 122]
11,4.47e-07 M,NC(=O)C1CCNC(=O)CN2CCN(CC2)Cc2cccc(c2)Nc2cc(ccn2)-c2cnc(nc2)N1 (stereo not drawn) [Compound 123]
12,2.82e-07 M,O=C1CN2CCN(CC2)Cc2cccc(c2)Nc2cc(ccn2)-c2cnc(nc2)NCCS(=O)(=O)N1 [Compound 126]
13,2.88e-07 M,O=C1CN2CCN(CC2)Cc2cccc(c2)Nc2cc(ccn2)-c2cnc(nc2)CN(CC2CC2)CCN1 [Compound 128]
14,1e-06 M,C=CCN1CCNC(=O)CN2CCN(CC2)Cc2cccc(c2)Nc2cc(ccn2)-c2cnc(nc2)C1 [Compound 130]
15,6.17e-08 M,O=C1CN2CCN(CC2)Cc2cccc(c2)Nc2cc(ccn2)-c2cnc(nc2)CN(C(=O)C2CC2)CCN1 [Compound 131]
16,3.8e-06 M,O=C1CN2CCC(CC2)Cc2cccc(c2)Nc2cc(ccn2)-c2ccc(nc2)NCCCN1 [Compound 140]
17,3.89e-08 M,O=C1CN2CCN(CC2)Cc2cccc(c2)Nc2cc(ccn2)-c2ccc(nc2)CN(CC2CC2)CCN1 [Compound 146]

# Biological target: T2, eEF2K (Homo sapiens, UniProt O00418)
# T2 construct: in the immortalized epithelial breast cell lines, MCF10A; host or cells: MCF10A immortalized breast epithelial cells
# T2 sequence (O00418 1-725): T1 sequence (O00418 1-725)
# Assay: EF2K cell-based assay (P-EF2 AlphaLISA, 2-deoxyglucose stimulated MCF10A cells)
# Details: 2.5 mM 2-deoxyglucose 4 h, phosphorylation of EF2 at Thr 56, pIC50 = -log IC50 (M)
# Method in brief: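 MCF10A cells pretreated with compound for 1 h, then stimulated with 2.5 mM 2-deoxyglucose for 4 h to deplete ATP and activate AMPK. Phospho-EF2 in lysates measured by AlphaLISA.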
row,eEF2K_C_PThr56 pIC50,SMILES
1,<4.52,O=C1CN2CCN(CC2)Cc2cccc(c2)Nc2cc(ccn2)-c2cnc(nc2)NC(C(=O)O)CCN1 (stereo not drawn) [Compound 117]
2,<4.52,O=C1CN2CCN(CC2)Cc2cccc(c2)Nc2cc(ccn2)-c2cnc(nc2)NC(C(=O)O)CCN1 (stereo not drawn) [Compound 119]

# Same assay, conditions: 2.5 mM 2-deoxyglucose 4 h, phosphorylation of EF2 at Thr 56, pIC50 = -log IC50 (M), read-out: eEF2K_C_PThr56 pIC50 (converted)
row,IC50,SMILES
1,5.25e-07 M,O=C1CN2CCC(CC2)Oc2cccc(c2)Nc2cc(ccn2)-c2cnc(nc2)NCCCN1 [Compound 90]
2,2.75e-06 M,O=C1NCCCNc2ncc(cn2)-c2ccnc(c2)Nc2cccc(c2)NC2CCN(CC2)C12CC2 [Compound 100]
3,3.98e-06 M,CN1c2cccc(c2)Nc2cc(ccn2)-c2cnc(nc2)NCCCNC(=O)CN2CCC1CC2 [Compound 101]
4,3.55e-07 M,O=C1NCCCNc2ncc(cn2)-c2ccnc(c2)Nc2cccc(c2)CN2CCN(CC2)C12CC2 [Compound 107]
5,1.91e-05 M,COC(=O)C1CCNC(=O)CN2CCN(CC2)Cc2cccc(c2)Nc2cc(ccn2)-c2cnc(nc2)N1 (stereo not drawn) [Compound 116]
6,> 3.02e-05 M,O=C1CN2CCN(CC2)Cc2cccc(c2)Nc2cc(ccn2)-c2cnc(nc2)NC(C(=O)O)CCN1 (stereo not drawn) [Compound 120]
7,> 1e-05 M,NC(=O)C1CCNC(=O)CN2CCN(CC2)Cc2cccc(c2)Nc2cc(ccn2)-c2cnc(nc2)N1 (stereo not drawn) [Compound 121]
8,1.41e-05 M,CNC(=O)C1CCNC(=O)CN2CCN(CC2)Cc2cccc(c2)Nc2cc(ccn2)-c2cnc(nc2)N1 (stereo not drawn) [Compound 122]
9,5.37e-06 M,NC(=O)C1CCNC(=O)CN2CCN(CC2)Cc2cccc(c2)Nc2cc(ccn2)-c2cnc(nc2)N1 (stereo not drawn) [Compound 123]
10,> 3.02e-05 M,O=C1CN2CCN(CC2)Cc2cccc(c2)Nc2cc(ccn2)-c2cnc(nc2)NCCS(=O)(=O)N1 [Compound 126]
11,4.17e-07 M,O=C1CN2CCN(CC2)Cc2cccc(c2)Nc2cc(ccn2)-c2cnc(nc2)CN(CC2CC2)CCN1 [Compound 128]
12,1.58e-06 M,C=CCN1CCNC(=O)CN2CCN(CC2)Cc2cccc(c2)Nc2cc(ccn2)-c2cnc(nc2)C1 [Compound 130]
13,2.51e-06 M,O=C1CN2CCN(CC2)Cc2cccc(c2)Nc2cc(ccn2)-c2cnc(nc2)CN(C(=O)C2CC2)CCN1 [Compound 131]
14,8.51e-06 M,O=C1CN2CCC(CC2)Cc2cccc(c2)Nc2cc(ccn2)-c2ccc(nc2)NCCCN1 [Compound 140]
15,6.61e-07 M,O=C1CN2CCN(CC2)Cc2cccc(c2)Nc2cc(ccn2)-c2ccc(nc2)CN(CC2CC2)CCN1 [Compound 146]

# Biological target: PIK3C3 lipid kinase (Homo sapiens, UniProt Q8NEB9)
# Sequence (Q8NEB9 whole entry): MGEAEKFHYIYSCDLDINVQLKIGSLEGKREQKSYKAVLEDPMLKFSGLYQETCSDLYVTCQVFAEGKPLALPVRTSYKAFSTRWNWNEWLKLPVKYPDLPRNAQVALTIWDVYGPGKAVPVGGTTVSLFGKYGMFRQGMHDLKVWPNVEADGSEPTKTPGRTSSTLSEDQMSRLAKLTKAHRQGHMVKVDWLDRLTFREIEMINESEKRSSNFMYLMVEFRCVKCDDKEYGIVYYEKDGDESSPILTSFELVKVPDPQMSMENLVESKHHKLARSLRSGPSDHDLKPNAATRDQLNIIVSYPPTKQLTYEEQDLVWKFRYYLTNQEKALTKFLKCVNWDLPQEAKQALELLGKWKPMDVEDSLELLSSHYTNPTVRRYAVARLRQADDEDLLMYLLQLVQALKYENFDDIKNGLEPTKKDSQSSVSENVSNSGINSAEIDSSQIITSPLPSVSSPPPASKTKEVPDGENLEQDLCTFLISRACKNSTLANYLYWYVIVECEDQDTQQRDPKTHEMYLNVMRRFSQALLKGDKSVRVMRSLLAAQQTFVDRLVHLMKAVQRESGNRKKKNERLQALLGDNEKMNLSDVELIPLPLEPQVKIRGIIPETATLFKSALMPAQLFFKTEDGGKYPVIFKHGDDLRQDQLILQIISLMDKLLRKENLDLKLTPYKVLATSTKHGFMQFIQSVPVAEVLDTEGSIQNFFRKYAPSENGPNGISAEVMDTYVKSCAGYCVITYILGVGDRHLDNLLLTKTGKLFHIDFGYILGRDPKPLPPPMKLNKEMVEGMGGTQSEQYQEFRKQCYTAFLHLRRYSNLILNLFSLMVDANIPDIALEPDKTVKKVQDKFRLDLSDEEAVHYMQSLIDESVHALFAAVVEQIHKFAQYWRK
# Assay: Biochemical Vps34 lipid kinase assay (ADP-Glo)
# Details: 1 h, single dose 1 μM; residual activity compared to control (DMSO); 20 μM ATP; read-out: VPS34_1microM_%ofcntrl
# Experimental: A non-radiometric kinase assay (ADP-Glo™ Assay, Promega, Madison, Wi, USA) was used for measuring the kinase activity of the PIK3C3 lipid kinase. All kinase assays were performed in 96-well half-area microtiter plates in a 25 μl reaction volume. The reaction cocktail was pipetted in 3 steps in the following order: • 10 μl of ATP solution (in assay buffer, see below) • 5 μl of test sample in 5% DMSO 10 μl of enzyme/substrate mixture
# All lipid kinase assays contained 50 mM HEPES (4-(2-hydroxyethyl)-1-piperazineethanesulfonic acid)—NaOH, pH 7.5, 1 mM EGTA ((ethylene glycol tetraacetic acid), 100 mM NaCl, 0.03% CHAPS (3-[(3-Cholamidopropyl) dimethylammonio]-1-propanesulfonate), 2 mM DTT (Dithiothreitol), 20 μM ATP (corresponding to the apparent ATP-Km), kinase (7.6 nM) and substrate (50 μM). The assay for PIK3C3 additionally contained 3 mM MnCl2.
# The reaction cocktails were incubated at 30° C. for 60 minutes. The reaction was stopped with 25 μl ADP-Glo™ reagent per well. Plates were incubated for 40 minutes at room temperature, followed by addition of 50 μl kinase detection reagent per well and incubation for 60 minutes at room temperature. Signal was determined with a microplate luminescence reader (Victor, Perkin Elmer). The assay was either performed using a single dose of compound (1 μM final concentration in the assay reaction) with resulting data expressed as residual activity compared to control (DMSO), or using a serial (half-log) dilution of compounds starting at 10 μM and down to 0.3 nM (final concentrations in the assay) with data expressed as the pIC50.
row,remaining activity at 1 µM,SMILES
1,14.9%,O=C1NCCCNc2ncc(cn2)-c2ccnc(c2)Nc2cccc(c2)NC2CCN(CC2)C12CC2 [Compound 100]
2,31.1%,CN1c2cccc(c2)Nc2cc(ccn2)-c2cnc(nc2)NCCCNC(=O)CN2CCC1CC2 [Compound 101]
3,33.5%,COC(=O)C1CCNC(=O)CN2CCN(CC2)Cc2cccc(c2)Nc2cc(ccn2)-c2cnc(nc2)N1 (stereo not drawn) [Compound 116]
4,39.5%,CNC(=O)C1CCNC(=O)CN2CCN(CC2)Cc2cccc(c2)Nc2cc(ccn2)-c2cnc(nc2)N1 (stereo not drawn) [Compound 122]
5,73.4%,NC(=O)C1CCNC(=O)CN2CCN(CC2)Cc2cccc(c2)Nc2cc(ccn2)-c2cnc(nc2)N1 (stereo not drawn) [Compound 123]
6,52.7%,O=C1CN2CCN(CC2)Cc2cccc(c2)Nc2cc(ccn2)-c2cnc(nc2)NCCS(=O)(=O)N1 [Compound 126]
7,74.5%,O=C1CN2CCN(CC2)Cc2cccc(c2)Nc2cc(ccn2)-c2cnc(nc2)CN(CC2CC2)CCN1 [Compound 128]
8,57%,C=CCN1CCNC(=O)CN2CCN(CC2)Cc2cccc(c2)Nc2cc(ccn2)-c2cnc(nc2)C1 [Compound 130]
9,56.2%,O=C1CN2CCN(CC2)Cc2cccc(c2)Nc2cc(ccn2)-c2cnc(nc2)CN(C(=O)C2CC2)CCN1 [Compound 131]
10,46.4%,O=C1CN2CCC(CC2)Cc2cccc(c2)Nc2cc(ccn2)-c2ccc(nc2)NCCCN1 [Compound 140]
11,54.6%,O=C1CN2CCN(CC2)Cc2cccc(c2)Nc2cc(ccn2)-c2ccc(nc2)CN(CC2CC2)CCN1 [Compound 146]

# Same assay, conditions: serial dilution 10 μM to 0.3 nM; 20 μM ATP; pIC50 = -log IC50 (M)
row,IC50,SMILES
1,6.17e-08 M,O=C1CN2CCC(CC2)Oc2cccc(c2)Nc2cc(ccn2)-c2cnc(nc2)NCCCN1 [Compound 90]
2,3.55e-07 M,O=C1NCCCNc2ncc(cn2)-c2ccnc(c2)Nc2cccc(c2)NC2CCN(CC2)C12CC2 [Compound 100]
3,3.31e-07 M,O=C1NCCCNc2ncc(cn2)-c2ccnc(c2)Nc2cccc(c2)CN2CCN(CC2)C12CC2 [Compound 107]
4,1.41e-07 M,O=C1CN2CCN(CC2)Cc2cccc(c2)Nc2cc(ccn2)-c2cnc(nc2)NC(C(=O)O)CCN1 (stereo not drawn) [Compound 117]
5,2.95e-07 M,O=C1CN2CCN(CC2)Cc2cccc(c2)Nc2cc(ccn2)-c2cnc(nc2)NC(C(=O)O)CCN1 (stereo not drawn) [Compound 120]
6,2.63e-06 M,NC(=O)C1CCNC(=O)CN2CCN(CC2)Cc2cccc(c2)Nc2cc(ccn2)-c2cnc(nc2)N1 (stereo not drawn) [Compound 121]

# Same assay, conditions: single dose 1 μM; residual activity compared to control (DMSO); 20 μM ATP
row,VPS34_1microM_%ofcntrl,SMILES
1,16.31%,O=C1CN2CCN(CC2)Cc2cccc(c2)Nc2cc(ccn2)-c2cnc(nc2)NC(C(=O)O)CCN1 (stereo not drawn) [Compound 117]
2,58.90%,O=C1CN2CCN(CC2)Cc2cccc(c2)Nc2cc(ccn2)-c2cnc(nc2)NC(C(=O)O)CCN1 (stereo not drawn) [Compound 119]
3,23.74%,O=C1CN2CCN(CC2)Cc2cccc(c2)Nc2cc(ccn2)-c2cnc(nc2)NC(C(=O)O)CCN1 (stereo not drawn) [Compound 120]

# Source: patent publication US20170022201A1, “MACROCYLIC PYRIDINE DERIVATIVES” (Janssen Pharmaceutica NV, priority 2014, published 2017)
